Experimental data reported in patent US20060063736A1, “Compositions and methods for inhibiting mucin-type O-linked glycosylation” (priority 2004, published 2006).

How the values were obtained:
mppGalNAcT-3 = biological target: T1, mppGalNAcT-3 (Mus musculus, UniProt P70419); experiment: ELLA for ppGalNAcTs, mppGalNAcT-3; assay type: biochemical, murine; settings: 20 μM UDP-GalNAc, 50 μM EA2 peptide 4
T1 construct: plasmids encoding truncated secreted ppGalNAcTs-1 to −5, -7, -10 and -11; made in house; host or cells: COS-7
T1 sequence (P70419 38-633 limits assumed): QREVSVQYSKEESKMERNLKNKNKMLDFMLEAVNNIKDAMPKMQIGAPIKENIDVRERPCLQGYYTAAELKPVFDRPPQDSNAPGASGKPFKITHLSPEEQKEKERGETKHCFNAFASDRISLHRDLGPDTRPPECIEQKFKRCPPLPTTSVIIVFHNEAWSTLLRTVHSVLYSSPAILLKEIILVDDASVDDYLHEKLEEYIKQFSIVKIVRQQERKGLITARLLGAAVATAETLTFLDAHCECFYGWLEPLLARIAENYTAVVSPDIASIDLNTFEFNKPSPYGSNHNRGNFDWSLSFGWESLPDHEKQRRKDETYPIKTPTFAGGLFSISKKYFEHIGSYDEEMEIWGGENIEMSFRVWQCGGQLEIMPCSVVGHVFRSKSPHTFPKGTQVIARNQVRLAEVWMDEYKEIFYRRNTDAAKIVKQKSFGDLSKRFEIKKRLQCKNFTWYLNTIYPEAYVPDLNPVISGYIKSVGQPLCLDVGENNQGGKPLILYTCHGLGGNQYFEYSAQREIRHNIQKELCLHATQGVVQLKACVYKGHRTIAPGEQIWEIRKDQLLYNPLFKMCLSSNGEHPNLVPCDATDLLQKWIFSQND
Experimental: COS-7 cells were transiently transfected with plasmids encoding truncated secreted ppGalNAcTs-1 to −5, -7, -10 and -11 as previously described. Hagen et al. (1997) J. Biol. Chem. 272:13843-13848. The crude conditioned medium was used as the enzyme source.
Standard reaction conditions for ppGalNAcT assays were as follows. The reaction mixture contained the following components in a final volume of 25 μL: 10 mM MnCl2, 40 mM sodium cacodylate, 40 mM β-mercaptoethanol, 0.1% Triton X-100, pH 6.5, 5 μL of conditioned media, and various concentrations of EA2 peptide 4, UDP-GalNAc and inhibitor. All uridine-based compounds were dissolved in dimethyl sulfoxide (DMSO). […] Reaction rates were linear over the period monitored (20-30 min).
96-Well NeutrAvidin-coated plates were prewashed 3 times with 200 μL of wash buffer (25 mM Tris, 150 mM NaCl, 0.1% bovine serum albumin (BSA) (w/v), and 0.05% Tween (v/v), pH 7.2). […] After 3 washes with 200 μL of PBS, bound HPA-HRP was quantified by the addition of 100 μL of TMB peroxide solution. […] HRP activity was terminated by the addition of 50 μL of 2 N H2SO4 and the resulting solution was analyzed at 450 nm using a UV/Vis microtiter plate reader. The amount of product generated by the ppGalNAcT was extrapolated from absorbance values using an equation fit to the standard curve derived from Origin 6.1 software.

rppGalNAcT-10 = biological target: T2, rppGalNAcT-10 (Rattus norvegicus, UniProt Q925R7); experiment: Radiolabel capture assay, rppGalNAcT-10; assay type: biochemical; settings: MUC5AC glycopeptide
T2 construct: plasmids encoding truncated secreted ppGalNAcTs-1 to −5, -7, -10 and -11; made in house; host or cells: COS-7
T2 sequence (Q925R7 32-603 limits assumed): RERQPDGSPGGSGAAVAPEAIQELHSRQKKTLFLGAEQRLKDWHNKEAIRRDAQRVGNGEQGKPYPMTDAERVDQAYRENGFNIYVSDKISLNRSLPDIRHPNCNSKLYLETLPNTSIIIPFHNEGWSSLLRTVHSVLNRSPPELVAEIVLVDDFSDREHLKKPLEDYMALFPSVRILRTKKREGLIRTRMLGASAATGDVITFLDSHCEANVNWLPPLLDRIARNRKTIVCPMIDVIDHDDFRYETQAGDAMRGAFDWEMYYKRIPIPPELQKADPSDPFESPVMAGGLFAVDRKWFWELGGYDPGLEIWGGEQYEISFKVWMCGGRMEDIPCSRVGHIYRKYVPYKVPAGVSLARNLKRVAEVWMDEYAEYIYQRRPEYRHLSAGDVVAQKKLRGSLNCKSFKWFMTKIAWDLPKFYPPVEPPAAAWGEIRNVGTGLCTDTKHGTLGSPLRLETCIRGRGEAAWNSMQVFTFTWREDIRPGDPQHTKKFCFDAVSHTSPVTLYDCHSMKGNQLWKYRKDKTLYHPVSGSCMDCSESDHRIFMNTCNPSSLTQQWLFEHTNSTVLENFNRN
Experimental: Radiolabel capture assays using ^14C-labeled UDP-GalNAc were performed as previously described with various concentrations of 1-68A or 2-68A in 2% DMSO. Ten Hagen et al. (2001) J. Biol. Chem. 276:17395-17404.
Table 1. IC50 values for 1-68A and 2-68A with ppGalNAcTs-1 to −5, -7, -10, -11, β1-4GalT and α1-3GalT. The requirement of glycopeptides as substrates for ppGalNAcT-7 and -10 precluded the use of the ELLA, as both the substrate and product bind HPA-HRP. Thus, the radiolabel capture assay was employed to measure the IC50 values of 1-68A and 2-68A with ppGalNAcT-7 and -10 using MUC5AC (GTTPSPVPTTSTTSAP; SEQ ID NO:15) glycopeptide, previously shown to be substrate for both enzymes. Ten Hagen et al. (1999) J. Biol. Chem. 274:27867-27874; and Ten Hagen et al. (2001) J. Biol. Chem. 276:17395-17404. IC50 values of 1-68A and 2-68A with ppGalNAcT-5 were performed with α-FLAG purified enzyme and radiolabel capture assay, due to low activity and stability of the crude enzyme. m=murine, r=rattus.

[1] = tested on: UDP-galactopyranose mutase; settings: Scherman et al. (2003); cited from earlier work

| Structure (SMILES) | IC50 (mppGalNAcT-3) | IC50 (rppGalNAcT-10) | identified in library screen against UDP-galactopyranose mutase [1] |
| --- | --- | --- | --- |
| O=c1ccn([C@@H]2O[C@H](CON=Cc3ccc(O)c(O)c3O)[C@@H](O)[C@H]2O)c(=O)[nH]1 [1-68A] | 40 ± 2 µM | 7 ± 1 µM | not identified |
| O=C(CON=Cc1ccc(O)c(O)c1O)NC[C@H]1O[C@@H](n2ccc(=O)[nH]c2=O)[C@H](O)[C@@H]1O [2-68A] | 38 ± 4 µM | 6 ± 1 µM | not identified |
